Assay results reported in patent US20250296960A1, “PEPTIDE COMPOSITIONS AND METHODS OF USE THEREOF” (priority 2022, published 2025).
Square brackets hold non-standard residues; d marks the D form. Peptide text beside a SMILES is read from it. * marks the point of attachment. X1 = O=C(O)CCCCCCCCCCCCCCCCC(=O)N[C@@H](CCC(=O)NCCOCCOCC(=O)NCCOCCOCC(=O)NCCN1C(=O)CC(*)C1=O)C(=O)O; Aib = CC(C)(N)C(=O)O

Assays:
[1] = target: T1, human GLP-1R (Homo sapiens, UniProt P43220); test: cAMP assay (HitHunter cAMP) in GLP-1R-expressing CHO-K1 cells (GLP-1R+ cells); format: cell-based; conditions: for Activity relative to STD peptide (%), GLP-1R: Table 18; for Activity relative to GLP-1 (%), GLP-1R: Table 19, normalised to activity at GLP-1R; for Relative % to native ligand, GLP-1R: Table 24, ratio of EC50 of native ligand over peptide; for Ratio vs. GLP-1R, GLP-1R: Table 25; for Relative % to non-lipidated peptide, GLP-1R: Table 26
T1 construct: host or cells: CHO-K1
T1 sequence (P43220 24-463): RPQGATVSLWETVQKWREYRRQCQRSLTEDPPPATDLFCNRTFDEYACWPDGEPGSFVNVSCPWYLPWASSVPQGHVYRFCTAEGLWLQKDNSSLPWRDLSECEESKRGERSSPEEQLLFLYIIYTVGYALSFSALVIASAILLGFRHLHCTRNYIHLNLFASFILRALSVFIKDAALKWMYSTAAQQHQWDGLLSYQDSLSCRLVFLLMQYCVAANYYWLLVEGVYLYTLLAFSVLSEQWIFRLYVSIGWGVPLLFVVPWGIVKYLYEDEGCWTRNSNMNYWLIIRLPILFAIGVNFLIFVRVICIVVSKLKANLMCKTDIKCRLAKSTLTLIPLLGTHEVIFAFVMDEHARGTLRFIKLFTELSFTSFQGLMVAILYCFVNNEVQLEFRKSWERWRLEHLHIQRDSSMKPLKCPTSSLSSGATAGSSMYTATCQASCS
Description: (§1) The cells were seeded in a 96-well plate at 7×10^3 cells/well using cell plate reagent and incubated the cells overnight at 37° C. and 5% CO2. To perform the cAMP detection assay, cell plating reagent were replaced with the cAMP Assay buffer. Each of the wells was then treated with the diluted peptide and incubated for 30 minutes under conditions of a temperature of 37° C. in a CO2 incubator.
(§2) After the incubation, cAMP Antibody reagent and Working cAMP detection solution to all wells. Incubate the plate for 1 hour at Room temperature in the dark. Then, cAMP Solution A was added and incubated for 3 hours at room temperature in the dark. Subsequently, the luminescence was measured using the microplate reader device.

[2] = target: T2, human GCGR (Homo sapiens, UniProt P47871); test: cAMP assay (HitHunter cAMP) in GCGR-expressing CHO-K1 cells (GCGR+ cells); format: cell-based; conditions: for Activity relative to STD peptide (%), GCGR: Table 18; for Activity relative to GLP-1 (%), GCGR: Table 19, normalised to activity at GLP-1R; for Relative % to native ligand, GCGR: Table 24, ratio of EC50 of native ligand over peptide; for Ratio vs. GLP-1R, GCGR: Table 25; for Relative % to non-lipidated peptide, GCGR: Table 26
T2 construct: host or cells: CHO-K1
T2 sequence (P47871 26-477): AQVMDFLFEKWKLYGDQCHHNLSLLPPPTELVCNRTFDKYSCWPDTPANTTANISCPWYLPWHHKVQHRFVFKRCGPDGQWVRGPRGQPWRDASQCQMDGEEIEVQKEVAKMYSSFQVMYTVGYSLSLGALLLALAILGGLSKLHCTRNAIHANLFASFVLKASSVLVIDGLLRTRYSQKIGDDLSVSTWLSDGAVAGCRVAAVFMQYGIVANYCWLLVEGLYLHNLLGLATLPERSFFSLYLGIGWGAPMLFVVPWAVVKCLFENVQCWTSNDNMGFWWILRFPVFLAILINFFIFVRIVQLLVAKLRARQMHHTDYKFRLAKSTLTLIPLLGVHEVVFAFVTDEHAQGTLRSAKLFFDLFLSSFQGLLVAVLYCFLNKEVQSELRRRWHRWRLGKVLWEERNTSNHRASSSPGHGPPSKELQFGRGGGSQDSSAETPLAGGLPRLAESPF
Description: as §1, §2

[3] = target: T3, human GIPR (Homo sapiens, UniProt P48546); test: cAMP assay (HitHunter cAMP) in GIPR-expressing CHO-K1 cells (GIPR+ cells); format: cell-based; conditions: for Activity relative to STD peptide (%), GIPR: Table 18; for Activity relative to GLP-1 (%), GIPR: Table 19, normalised to activity at GLP-1R; for Relative % to native ligand, GIPR: Table 24, ratio of EC50 of native ligand over peptide; for Ratio vs. GLP-1R, GIPR: Table 25; for Relative % to non-lipidated peptide, GIPR: Table 26
T3 construct: host or cells: CHO-K1
T3 sequence (P48546 22-466): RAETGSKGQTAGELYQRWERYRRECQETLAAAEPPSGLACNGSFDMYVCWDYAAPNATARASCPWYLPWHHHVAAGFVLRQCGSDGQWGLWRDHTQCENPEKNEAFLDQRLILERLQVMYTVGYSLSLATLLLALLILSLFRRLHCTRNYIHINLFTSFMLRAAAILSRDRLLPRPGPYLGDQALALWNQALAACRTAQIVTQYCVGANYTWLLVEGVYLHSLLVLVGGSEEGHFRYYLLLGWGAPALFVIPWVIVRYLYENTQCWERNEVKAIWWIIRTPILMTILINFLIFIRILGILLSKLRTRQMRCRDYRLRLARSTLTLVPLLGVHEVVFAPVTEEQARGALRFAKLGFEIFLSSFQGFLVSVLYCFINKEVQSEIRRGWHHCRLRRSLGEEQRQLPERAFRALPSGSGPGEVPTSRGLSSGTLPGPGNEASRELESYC
Description: as §1, §2

[4] = Body weight loss in normal C57BL/6 mice, subcutaneous dosing; format: in vivo; conditions: normal mice; 20 nmol/kg QD; after 48 or 72 hours
Description: To confirm the therapeutic effect of the peptide in vivo, polypeptides were administered to mice to measure changes in body weight. […] The peptides were delivered at 0.02% polysorbate 80 (PS80) in PBS and dosing volume was 10 mL/kg. Body weight was monitored 6 h, QD.
To confirm the therapeutic effect of the peptide in obesity, diabetes, or NASH, polypeptides were administered to mice to measure changes in food intake, blood glucose and body weight. […] In addition, a NASH animal model was prepared by feeding a high fat, high fructose, high cholesterol diet to normal C57BL/6 mice (approximately 6 weeks old) for approximately 21 weeks, and increasing the body weights of the mice to approximately 50 g on average. Thereafter, polypeptides were administered by subcutaneous injection at dose of 20 nmol/kg once every other day for 2 weeks. Body weight and food intake were measured once every other day given points of time. After 2 weeks of treatment period, mice were sacrificed, then liver weight, hepatic triglyceride, and NASH related biomarkers were measured.
DD01 administered at 40 nmol/kg, s.c. Q2D as positive control was delivered at 0.02% PS80 in PBS and dosing volume was 10 mL/kg. Body weight was monitored QD for 4 days.
The peptides were delivered at 0.02% PS80 in PBS and dosing volume was 10 mL/kg. Food intake, blood glucose, and body weight changes were monitored QD.

Compound | Activity relative to STD peptide (%), GLP-1R [1] | Activity relative to GLP-1 (%), GLP-1R [1] | Relative % to native ligand, GLP-1R [1] | Ratio vs. GLP-1R, GLP-1R [1] | Relative % to non-lipidated peptide, GLP-1R [1] | Activity relative to STD peptide (%), GCGR [2] | Activity relative to GLP-1 (%), GCGR [2] | Relative % to native ligand, GCGR [2] | Ratio vs. GLP-1R, GCGR [2] | Relative % to non-lipidated peptide, GCGR [2] | Activity relative to STD peptide (%), GIPR [3] | Activity relative to GLP-1 (%), GIPR [3] | Relative % to native ligand, GIPR [3] | Ratio vs. GLP-1R, GIPR [3] | Relative % to non-lipidated peptide, GIPR [3] | Weight loss (%) [4]
CC[C@H](C)[C@H](NC(=O)[C@H](CC(C)C)NC(=O)[C@H](Cc1c[nH]c2ccccc12)NC(=O)[C@H](CCC(N)=O)NC(=O)[C@@H](NC(=O)[C@H](Cc1ccccc1)NC(=O)[C@H](CC(=O)O)NC(=O)[C@H](CCCNC(=N)N)NC(=O)[C@H](CCC(N)=O)NC(=O)[C@H](CCSC)NC(=O)[C@H](CCSC)NC(=O)[C@H](Cc1ccc(O)cc1)NC(=O)[C@H](CC(=O)O)NC(=O)[C@H](CC(C)C)NC(=O)[C@H](Cc1ccc(O)cc1)NC(=O)[C@H](CCCCN)NC(=O)[C@H](CO)NC(=O)[C@H](Cc1ccc(O)cc1)NC(=O)[C@H](CC(=O)O)NC(=O)[C@H](CO)NC(=O)[C@@H](NC(=O)[C@H](Cc1ccccc1)NC(=O)[C@@H](NC(=O)CNC(=O)[C@H](CCC(N)=O)NC(=O)C(C)(C)NC(=O)[C@@H](N)Cc1ccc(O)cc1)[C@@H](C)O)[C@@H](C)O)C(C)C)C(=O)N[C@@H](CCC(=O)O)C(=O)NCC(=O)NCC(=O)N1CCC[C@H]1C(=O)N[C@@H](CO)C(=O)N[C@@H](CO)C(=O)NCC(=O)N[C@@H](C)C(=O)N1CCC[C@H]1C(=O)N1CCC[C@H]1C(=O)N1CCC[C@H]1C(=O)N[C@@H](CO)C(=O)N[C@@H](CSC1CC(=O)N(CCNC(=O)COCCOCCNC(=O)COCCOCCNC(=O)CC[C@H](NC(=O)CCCCCCCCCCCCCCCCC(=O)O)C(=O)O)C1=O)C(N)=O (some centres unmarked) [5-2A] (H-Y[Aib]QGTFTSDYSKYLDYMMQRDFVQWLIEGGPSSGAPPPSC(X1)-NH2; N-terminus assumed) | 145% | 100% | 145% | 100 | 29% | 1% | 0% | 1% | 0 | 1% | 3% | 2% | 3% | 2 | 0.4% | 10.4 ± 1.2%
CSCC[C@H](NC(=O)[C@H](Cc1ccc(O)cc1)NC(=O)[C@H](CC(=O)O)NC(=O)[C@H](CC(C)C)NC(=O)[C@H](CC(C)C)NC(=O)[C@H](CCCCN)NC(=O)[C@H](CO)NC(=O)[C@H](Cc1ccc(O)cc1)NC(=O)[C@H](CC(=O)O)NC(=O)[C@H](CO)NC(=O)[C@@H](NC(=O)[C@H](Cc1ccccc1)NC(=O)[C@@H](NC(=O)CNC(=O)[C@H](CCC(N)=O)NC(=O)C(C)(C)NC(=O)[C@@H](N)Cc1c[nH]cn1)[C@@H](C)O)[C@@H](C)O)C(=O)N[C@@H](CCSC)C(=O)N[C@@H](CCC(N)=O)C(=O)N[C@@H](CCCNC(=N)N)C(=O)N[C@@H](CC(=O)O)C(=O)N[C@@H](Cc1ccccc1)C(=O)N[C@H](C(=O)N[C@@H](CCC(N)=O)C(=O)N[C@@H](Cc1c[nH]c2ccccc12)C(=O)N[C@@H](CC(C)C)C(=O)N[C@@H](CC(C)C)C(=O)N[C@@H](CCC(=O)O)C(=O)NCC(=O)NCC(=O)N1CCC[C@H]1C(=O)N[C@@H](CO)C(=O)N[C@@H](CO)C(=O)NCC(=O)N[C@@H](C)C(=O)N1CCC[C@H]1C(=O)N1CCC[C@H]1C(=O)N1CCC[C@H]1C(=O)N[C@@H](CO)C(=O)N[C@@H](CSC1CC(=O)N(CCNC(=O)COCCOCCNC(=O)COCCOCCNC(=O)CC[C@H](NC(=O)CCCCCCCCCCCCCCCCC(=O)O)C(=O)O)C1=O)C(N)=O)C(C)C (some centres unmarked) [5-5A] (H-H[Aib]QGTFTSDYSKLLDYMMQRDFVQWLLEGGPSSGAPPPSC(X1)-NH2; N-terminus assumed) | 673% | 100% | 673% | 100 | 40% | 1% | 0% | 1% | 0 | 1% | 14% | 2% | 14% | 2 | 3% | 10.6 ± 1.0%
